Test results taken from article PMC10288853 (Frontiers in Oncology, 2023).
Where “and” joins values, the source holds several entries; their conditions need not be identical. Equal values may be shown once.

Assays:
[1] = tested on: patients with metastatic uveal melanoma; assay: Safety and tolerability: adverse events in phase Ib patients; details: given in the combination, all patients
Method: Treated patients were assessed for toxicity by physical examinations on a weekly basis during cycle 1 and on day 1 of each subsequent cycle, with laboratory assessments and ECGs performed on cycle 1 day 1, cycle 1 day 15, and on day 1 of each subsequent cycle. Patients underwent imaging studies for response evaluation during screening and after every 2 cycles of treatment.

[2] = Plasma pharmacokinetics by LC-MS/MS; details: for AUC(0-t) / Cmax / Tmax: human, plasma, oral; for Cmax: Median Cmax [Min; for Tmax: Median Tmax [Min
Method: (§1) Samples were collected on days 1, 8, 15 and 22 of cycle 1, and pre-dose on day 1 of cycles 2 through 6. Plasma concentrations were measured using a validated liquid chromatography-tandem mass spectrometry assay. The lower limit of quantification (LLOQ) was 3.0 ng/mL for sotrastaurin and its metabolite AEE800. […] Concentrations below the LLOQ were treated as zero in summary statistics.
(§2) The PK analyses used the actual dose received for each particular PK profile. Parameters relating to the PK profile (e.g., AUC and Cmax) were summarized for data collected on C1D1 and C1D15.

[3] = tested on: metastatic uveal melanoma; design: method as in PMID 34551229, PMID 35254876; details: previously untreated HLA-A*0201 positive patients, versus best alternative care; ref [6], [7]; cited from earlier work
clinical = details: human, in vivo, median AUC0-8hr of sotrastaurin
Method: as §1, §2

[4] = human, in vivo
Method: as §1, §2

[5] = b.i.d. dosing in combination with sotrastaurin
[6] = Max], plasma binimetinib, 2nd section, Cycle 1 Day 1 (C1D1), Dose Level 1: AEB071 150 mg bid and MEK162 45 mg bid
[7] = Max], plasma binimetinib, 2nd section, Cycle 1 Day 1 (C1D1), Dose Level 3: AEB071 300 mg bid and MEK162 30 mg bid
[8] = Max], plasma binimetinib, 2nd section, Cycle 1 Day 1 (C1D1), Dose Level 4: AEB071 300 mg bid and MEK162 45 mg bid
[9] = Max], plasma binimetinib, 2nd section, Cycle 1 Day 1 (C1D1), Dose Level 5: AEB071 350 mg bid and MEK162 30 mg bid
[10] = Max], plasma binimetinib, 2nd section, Cycle 1 Day 1 (C1D1), Dose Level 6: AEB071 400 mg bid and MEK162 30 mg bid
[11] = Max], plasma binimetinib, Cycle 1 Day 1 (C1D1), Dose Level 1: AEB071 150 mg bid and MEK162 45 mg bid
[12] = Max], plasma binimetinib, Cycle 1 Day 1 (C1D1), Dose Level 2: AEB071 200 mg bid and MEK162 45 mg bid
[13] = Max], plasma binimetinib, Cycle 1 Day 1 (C1D1), Dose Level 3: AEB071 300 mg bid and MEK162 30 mg bid
[14] = Max], plasma binimetinib, Cycle 1 Day 1 (C1D1), Dose Level 4: AEB071 300 mg bid and MEK162 45 mg bid
[15] = Max], plasma binimetinib, Cycle 1 Day 1 (C1D1), Dose Level 5: AEB071 350 mg bid and MEK162 30 mg bid
[16] = Max], plasma binimetinib, Cycle 1 Day 1 (C1D1), Dose Level 6: AEB071 400 mg bid and MEK162 30 mg bid

Cn1cnc2c(F)c(Nc3ccc(Br)cc3F)c(C(=O)NOCCO)cc21 [binimetinib]
Dose reductions applied [1]: 65.8%
median RACC of binimetinib, other three dose levels lower than or close to 1 [2, 5]: 0.76 and 0.78 and 1.08
median RACC of binimetinib, three dose levels much higher than 1 [2, 5]: 1.34 and 1.42 and 1.54
AUC(0-t) ([2]; 30 mg, median AUC0-8hr range of binimetinib, cycle 1 day 15, binimetinib 30 mg b.i.d. with varying doses of sotrastaurin): 1210 to 1450 ng·h/mL
AUC(0-t) ([2]; 45 mg, median AUC0-8hr range of binimetinib, cycle 1 day 15, binimetinib 45 mg b.i.d. with varying doses of sotrastaurin): 1480 to 2140 ng·h/mL
AUC(0-t) ([2]; Median AUC0–8hr [Min, Max], plasma binimetinib, 2nd section, Cycle 1 Day 1 (C1D1), Dose Level 1: AEB071 150 mg bid and MEK162 45 mg bid): 2000 ng·h/mL
AUC(0-t) ([2]; Median AUC0–8hr [Min, Max], plasma binimetinib, 2nd section, Cycle 1 Day 1 (C1D1), Dose Level 3: AEB071 300 mg bid and MEK162 30 mg bid): 1210 ng·h/mL
AUC(0-t) ([2]; Median AUC0–8hr [Min, Max], plasma binimetinib, 2nd section, Cycle 1 Day 1 (C1D1), Dose Level 4: AEB071 300 mg bid and MEK162 45 mg bid): 1480 ng·h/mL
AUC(0-t) ([2]; Median AUC0–8hr [Min, Max], plasma binimetinib, 2nd section, Cycle 1 Day 1 (C1D1), Dose Level 5: AEB071 350 mg bid and MEK162 30 mg bid): 1250 ng·h/mL
AUC(0-t) ([2]; Median AUC0–8hr [Min, Max], plasma binimetinib, 2nd section, Cycle 1 Day 1 (C1D1), Dose Level 6: AEB071 400 mg bid and MEK162 30 mg bid): 1450 ng·h/mL
AUC(0-t) ([2]; Median AUC0–8hr [Min, Max], plasma binimetinib, Cycle 1 Day 1 (C1D1), Dose Level 1: AEB071 150 mg bid and MEK162 45 mg bid): 1540 ng·h/mL
AUC(0-t) ([2]; Median AUC0–8hr [Min, Max], plasma binimetinib, Cycle 1 Day 1 (C1D1), Dose Level 2: AEB071 200 mg bid and MEK162 45 mg bid): 1550 ng·h/mL
AUC(0-t) ([2]; Median AUC0–8hr [Min, Max], plasma binimetinib, Cycle 1 Day 1 (C1D1), Dose Level 3: AEB071 300 mg bid and MEK162 30 mg bid): 1130 ng·h/mL
AUC(0-t) ([2]; Median AUC0–8hr [Min, Max], plasma binimetinib, Cycle 1 Day 1 (C1D1), Dose Level 4: AEB071 300 mg bid and MEK162 45 mg bid): 1610 ng·h/mL
AUC(0-t) ([2]; Median AUC0–8hr [Min, Max], plasma binimetinib, Cycle 1 Day 1 (C1D1), Dose Level 5: AEB071 350 mg bid and MEK162 30 mg bid): 1260 ng·h/mL
AUC(0-t) ([2]; Median AUC0–8hr [Min, Max], plasma binimetinib, Cycle 1 Day 1 (C1D1), Dose Level 6: AEB071 400 mg bid and MEK162 30 mg bid): 985 ng·h/mL
Cmax [2, 6]: 493 ng/mL
Cmax ([2]; Max], plasma binimetinib, 2nd section, Cycle 1 Day 1 (C1D1), Dose Level 2: AEB071 200 mg bid and MEK162 45 mg bid): 410 ng/mL
Cmax [2, 7]: 246 ng/mL
Cmax [2, 8]: 391 ng/mL
Cmax [2, 9]: 280 ng/mL
Cmax [2, 10]: 346 ng/mL
Cmax [2, 11]: 366 ng/mL
Cmax [2, 12]: 450 ng/mL
Cmax [2, 13]: 213 ng/mL
Cmax [2, 14]: 370 ng/mL
Cmax [2, 15]: 259 ng/mL
Cmax [2, 16]: 279 ng/mL
Tmax [2, 6]: 2 h
Tmax [2, 7]: 3 h
Tmax [2, 8]: 2.9 h
Tmax [2, 9]: 1.9 h
Tmax [2, 10]: 1.5 h
Tmax [2, 11]: 1.1 h
Tmax [2, 12]: 1.1 h
Tmax [2, 13]: 2 h
Tmax [2, 14]: 4 h
Tmax [2, 15]: 2 h
Tmax [2, 16]: 1.1 h
Median AUC0–8hr [Min; Max] ([2]; plasma binimetinib, 2nd section, Cycle 1 Day 1 (C1D1), Dose Level 2: AEB071 200 mg bid and MEK162 45 mg bid): 2137.7 [1121.6; 2772.3] hr*ng/ml

tebentafusp: agent improving overall survival in previously untreated HLA-A*0201 positive metastatic uveal melanoma patients
hazard ratio for death [3]: 0.51
reduction in the risk of death [3]: 49%

CN1CCN(c2nc(C3=C(c4c[nH]c5ccccc45)C(=O)NC3=O)c3ccccc3n2)CC1 [sotrastaurin]
Dose reductions applied [1]: 76.3%
accumulation of sotrastaurin following b.i.d. dosing ([2]; exposure on day 15 compared with day 1): no observed accumulation
AUC(0-t) (clinical; 150 mg): 6070 ng·h/mL
AUC(0-t) (clinical; 400 mg): 21600 ng·h/mL
median RACC, range at different doses of sotrastaurin [4]: 0.72-1.15
